According to US6783952B1, “Secreted soluble α2δ-2, α2δ-3 or α2δ-4 calcium channel subunit polypeptides and screening assays using same” (Warner-Lambert Company, priority 1999, dated 2004):

target: [^3H]gabapentin site in porcine cortical membranes (Sus scrofa, UniProt O77773); assay: [3H]gabapentin binding site competition in porcine cortical membranes; conditions: read-out: IC50 arithmetic mean (N = 3) ± S.E.M., binding affinity for the [3H]gabapentin site, mean of n = 3 ± S.E.M.
Sequence (O77773 25-1091): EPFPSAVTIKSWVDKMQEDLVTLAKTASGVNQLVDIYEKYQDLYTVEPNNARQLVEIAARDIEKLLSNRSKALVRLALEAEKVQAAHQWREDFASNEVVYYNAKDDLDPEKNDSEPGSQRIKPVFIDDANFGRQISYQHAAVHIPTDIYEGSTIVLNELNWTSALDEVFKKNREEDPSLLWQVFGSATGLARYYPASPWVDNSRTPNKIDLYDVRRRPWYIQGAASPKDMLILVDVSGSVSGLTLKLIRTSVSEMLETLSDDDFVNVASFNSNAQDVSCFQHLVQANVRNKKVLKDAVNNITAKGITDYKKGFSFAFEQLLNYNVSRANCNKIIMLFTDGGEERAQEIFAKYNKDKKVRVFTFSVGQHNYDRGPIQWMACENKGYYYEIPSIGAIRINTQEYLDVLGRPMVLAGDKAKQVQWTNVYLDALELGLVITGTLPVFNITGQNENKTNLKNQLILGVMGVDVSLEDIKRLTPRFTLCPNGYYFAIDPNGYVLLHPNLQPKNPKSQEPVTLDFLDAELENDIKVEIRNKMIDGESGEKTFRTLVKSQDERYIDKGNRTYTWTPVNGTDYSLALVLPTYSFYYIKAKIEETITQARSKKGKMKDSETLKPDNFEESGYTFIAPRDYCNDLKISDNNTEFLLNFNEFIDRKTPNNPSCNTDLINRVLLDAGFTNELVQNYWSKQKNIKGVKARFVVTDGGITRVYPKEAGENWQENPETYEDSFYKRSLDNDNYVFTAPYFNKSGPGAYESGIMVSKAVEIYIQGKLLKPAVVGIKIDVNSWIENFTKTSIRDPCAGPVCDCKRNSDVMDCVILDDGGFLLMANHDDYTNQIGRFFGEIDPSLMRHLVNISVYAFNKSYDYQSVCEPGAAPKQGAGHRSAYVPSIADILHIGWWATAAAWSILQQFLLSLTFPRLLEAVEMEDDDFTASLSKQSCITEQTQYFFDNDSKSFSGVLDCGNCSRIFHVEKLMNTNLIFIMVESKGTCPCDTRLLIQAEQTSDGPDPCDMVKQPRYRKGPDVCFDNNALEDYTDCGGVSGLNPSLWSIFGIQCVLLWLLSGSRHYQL

SMILES	IC50 [nM]
CC[C@@H](C)[C@H](N)C(=O)O [L-Allo-Isoleucine]	32.8 ± 6
CC[C@H](C)[C@H](N)C(=O)O [L-Isoleucine]	68.8 ± 1.9
CC(C)C[C@H](N)C(=O)O [L-Leucine]	61.3 ± 20.9
CSCC[C@H](N)C(=O)O [L-Methionine]	49.6 ± 10
CCCC[C@H](N)C(=O)O [L-Norleucine]	23.6 ± 6.7
N[C@@H](Cc1ccccc1)C(=O)O [L-Phenylalanine]	351 ± 89
CC(C)[C@H](N)C(=O)O [L-Valine]	330 ± 18
